Earlier results in patent publication US6884793B2, “Combination preparation for contraception based on natural estrogens” (Jenapharm GmbH & Co. KG, priority 1995, dated 2005).

Tested on: human liver Cytochrome P-450

In the case of `C#C[C@]1(O)CC[C@H]2[C@@H]3CCc4cc(O)ccc4[C@H]3CC[C@@]21C` [Ethinyl estradiol, ethinyl estradiol], the “effect on Cytochrome P-450 system” value is given as “suicidal blockage of the Cytochrome P-450 system”.
